Assays:
[1] = tested on: 78 bp amplicon from the anti-sense C construct; assay: Amplification of nucleic acids on the Light Cycler in the presence of dye (Example 33); assay type: biochemical
Method: A target template was amplified on the Light Cycler (Roche) in the presence of various amounts of Dye 109 from Example 14. As a control, various amounts of SYBR Green (Molecular Probes, Eugene, Oreg.) were also included. The template was a 1:500 dilution of a 78 bp amplicon made in a previous reaction from the anti-sense C construct described in Liu et al. 1997 (J. Virol. 71: 4079-4085). A 2×PCR mix was made up of 20 mM Tris pH 8.3, 50 mM KCl, 4 mM MgCl2, 0.4 mM dCTP, 0.4 mM dGTP, 0.4 mM dATP, 0.8 mM dUTP, […] and […].
The Forward Primer sequence is comprised of 20 nucleotides: 5′ […] 3′ (SEQ ID NO: 1). It is an artificial sequence comprising a fusion of human Ul and HIV sequences. Bases 1-7 (CATGATC) of the first sequence are derived from plasmid pHSD-4 and comprise sequences from the human Ul gene. Bases […] (GATCCGGATGGGAGGTG) of the second sequence are derived from a region of the BAL strain of HIV containing the Tat/Rev splice acceptor site.
The Reverse Primer sequence is comprised of 22 nucleotides: 5′[…] (SEQ ID NO: 2). It is an artificial sequence comprising a fusion of human Ul and HIV sequences. Bases 1-11 (GCACATCCGGA) of the first sequence are derived from plasmid pHSD-4 and comprise sequences from the human Ul gene. Bases […] (GATCCGGATGGGAGGTG) of the second sequence are derived from a region of the BAL strain of HIV containing the Tat/Rev splice acceptor site.
The 78 bp amplicon synthesized with Forward Primer (SEQ ID NO: 1) and Reverse Primer (SEQ ID NO: 2) has the following sequence: 5′ […] 3′ (SEQ ID NO: 3). It is an artificial sequence comprising a fusion of human Ul and HIV sequences. Bases 1-11 (GCACATCCGGA) and 68-78 (TCCGGATGTGC) are derived from plasmid pHSD-4 and comprise sequences from the human Ul gene. Bases […] are derived from a region of the BAL strain of HIV containing the Tat/Rev splice acceptor site.
A master mixture was made up of: • 350 µl of 2×PCR mix described above • 14 µl of 25 mM MgCl2 • 122.5 µl of DEPC treated H2O • 14 ul of 1 u/l ung (Epicentre) • 7 µl of 10 mg/ml BSA (New England Biolabs, Beverly, Mass.) • 7 l Taq polymease (Perkin Elmer)+7 µl of TaqStart (Clontech) • 2.5 µl of target template+2.0 l of various dilutions of dyes were added to 15.5 µl of Master mixture, incubated at 45° C. for 10 minutes and then amplified by: • 1) Melting • 2 minutes @ 95° C. • 2) Cycling • a) Denaturation step: 0 seconds @ 95° C. • b) Annealing step: 5 seconds @ 69° C. for first cycle; subsequent cycles were each reduced by 0.5° C. until 65° C. was reached and all annealing steps in further cycles were carried out at this temperature • c) Extension step: 5 seconds @ 72° C. • 3) After completion of 56 cycles, all samples were maintained at 4° C. until analyzed.
After the amplification reactions were finished, the samples were analyzed by gel electrophoresis. For SYBR Green, the recommended reaction concentration is 1:10,000. As such, the amplification products shown in lanes 5 and 6 using 2 l of […] dilution in a 20 l reaction (final=1:8,000) is approximately representative of the product from the standard procedure. For Dye 109, the reactions are listed in terms of dilutions of a stock of Dye 109 with an OD reading of 200 taken at 495 nm. […] However, when lower dilutions of the dyes were added there was no inhibition of the process.

[2] = tested on: anti-sense C amplicon; assay: Amplification of various amounts of target with fixed dye levels, 29 cycles (Example 37); assay type: biochemical; conditions: 1:1000 dilution of SYBR Green
Method: In the previous experiments, a fixed amount of target was amplified in the presence of varying level of dyes. The eventual use of these dyes is going to be with a fixed amount of dye and varying levels of targets. As such, an experiment was carried out using previously determined optimal levels of dyes and various amounts of input target (again using the anti-sense C as a model). • Dilution 1=1:100,000 • Dilution 2=1:1,000,000 • Dilution 3=1:10,000,000 • Dilution 4=1:100,000,000 • Dilution 5=1:1,000,000,000 • Dilution 6=1:10,000,000,000
Selected amounts of target template were amplified on the Light Cycler (Roche) in the presence of various amounts of Dye 122, Dye 109a and SYBR Green.
A master mixture was made up of: • 380 l of 2×PCR mix described in Example 33 • 15.2 l of 25 mM MgCl2 • 190.0 l of DEPC treated H2O • 7.6 l of 10 mg/ml BSA (New England Biolabs, Beverly, Mass.) • 7.6 l Taq polymease (Perkin Elmer)+7.6 l of TaqStart (Clontech)
2.0 l of target template (1:50,000 dilution of the antisense C amplicon)+2.0 l of various dye concentrations were added to 16 µl of Master mixture and amplified as described previously in Example 33 stopping after 29 cycles. Dye additions were from the 1:1000 dilution of SYBR Green, 1:30 of Dye 109a and 1:30 of Dye 122.
At the highest input level (Dil 2 1:1,000,000 dilution of amplicon) no evidence of amplification is seen in the sample without dye.

[3] = 1:200 dilution of SYBR Green, lane 7

## CCCN(CCCN(C)C)c1cc(/C=C2/Sc3ccccc3N2C)c2ccccc2[n+]1-c1ccccc1 [SYBR Green, reference compound]
[1]; 1:20 dilution of SYBR Green, 56 cycles
  amplification (gel analysis, FIG. 1): strong inhibition of amplification
[1]; [3]
  synthesis of non-target derived amplicons: elimination or suppression of the synthesis of non-target derived amplicons
  synthesis of target derived amplicons compared to the reaction without any dye: enhancement of overall synthesis of target derived amplicons
[2]; Dil 2 (1:1,000,000) target input
  amplification product (gel analysis, FIG. 5): faint but visible band
[2]; further dilutions of target
  amplification product (gel analysis, FIG. 5): do not show any evidence of an amplification product
